Measurements: publication PMC8372549 (Toxicology and applied pharmacology, 2021)

Experiments:
Assay type in all cases: biochemical
cytochrome P450 1A1 [1] = molecular target: T1, cytochrome P450 1A1 (Homo sapiens, UniProt P04798); assay: fluorometric O-deethylation by recombinant CYP1A1 bactosomes; conditions: cited from earlier work
T1 sequence (P04798 1-512): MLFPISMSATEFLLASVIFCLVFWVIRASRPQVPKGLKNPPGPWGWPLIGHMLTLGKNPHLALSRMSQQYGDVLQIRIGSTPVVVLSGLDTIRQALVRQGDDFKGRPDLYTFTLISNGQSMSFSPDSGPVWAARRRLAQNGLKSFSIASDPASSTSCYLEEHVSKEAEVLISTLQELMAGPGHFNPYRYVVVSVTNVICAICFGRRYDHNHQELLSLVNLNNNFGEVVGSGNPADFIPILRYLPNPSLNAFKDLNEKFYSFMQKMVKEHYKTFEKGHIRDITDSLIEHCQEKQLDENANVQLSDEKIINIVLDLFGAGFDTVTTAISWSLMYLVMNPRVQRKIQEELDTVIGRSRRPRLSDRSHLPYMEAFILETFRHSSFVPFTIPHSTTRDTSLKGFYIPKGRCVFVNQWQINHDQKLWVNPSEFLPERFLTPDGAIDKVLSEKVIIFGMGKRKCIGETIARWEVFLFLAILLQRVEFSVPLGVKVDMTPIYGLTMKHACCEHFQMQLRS

CYP1B1 = molecular target: T2, CYP1B1 (Homo sapiens, UniProt Q16678); assay: fluorometric 7-ethoxyresorufin O-deethylation with recombinant CYP1B1 bactosomes
T2 sequence (Q16678 1-543): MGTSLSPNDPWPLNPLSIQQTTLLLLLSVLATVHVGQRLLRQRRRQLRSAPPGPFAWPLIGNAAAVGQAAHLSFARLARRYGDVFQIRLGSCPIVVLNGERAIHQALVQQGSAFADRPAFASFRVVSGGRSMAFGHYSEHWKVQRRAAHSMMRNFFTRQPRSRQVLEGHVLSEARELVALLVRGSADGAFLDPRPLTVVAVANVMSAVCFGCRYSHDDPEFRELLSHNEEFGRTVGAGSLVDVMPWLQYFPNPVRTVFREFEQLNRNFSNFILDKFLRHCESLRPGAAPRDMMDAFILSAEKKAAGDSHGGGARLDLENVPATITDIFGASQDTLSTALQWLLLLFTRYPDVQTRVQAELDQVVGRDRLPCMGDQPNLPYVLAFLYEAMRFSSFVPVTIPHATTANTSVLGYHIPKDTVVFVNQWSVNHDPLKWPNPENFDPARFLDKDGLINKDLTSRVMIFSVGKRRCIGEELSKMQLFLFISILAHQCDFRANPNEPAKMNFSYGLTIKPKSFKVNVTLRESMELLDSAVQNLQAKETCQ

cytochrome P450 1A1 [2] = molecular target: T1, cytochrome P450 1A1; assay: fluorometric CEC O-deethylation with recombinant CYP1A1 bactosomes

Row | IC50 (CYP1B1) [µM] | Ki (cytochrome P450 1A1 [2]) [µM] | Structure (SMILES) | Km (cytochrome P450 1A1 [1]) [µM]
1 | – | – | CCOc1ccc2cc(C#N)c(=O)oc2c1 [CEC, 3-cyano-7-ethoxycoumarin] | 0.5
2 | 1.7 ± 0.3 | 4.55 ± 0.37 | c1ccc(CSSSCc2ccccc2)cc1 [DTS, dibenzyl trisulfide] | –
